Several values for one entry are separate records, joined by “and”; a condition that tells them apart may be missing. Identical values can stand only once.
Key:
[1] = 101.33 kPa, Liquid
[2] = xn = mol fraction of the nth substance listed; conditions: 101.33 kPa, Liquid

C1CCNC1 [pyrrolidine]
[1]
Conditions	mass density [kg/m3]
298.15 K	854.6
323.15 K	833.7

C1CCNC1 [pyrrolidine] + O
mass density, [2]
Conditions	298.15 K	323.15 K
x1 = 0.099	976 kg/m3	960 kg/m3
x1 = 0.1	973.9 kg/m3	963.6 kg/m3
x1 = 0.199	956.6 kg/m3	941.5 kg/m3
x1 = 0.204	952.8 kg/m3	937.2 kg/m3
x1 = 0.297	934.7 kg/m3	921.2 kg/m3
x1 = 0.299	938.8 kg/m3	924.5 kg/m3
x1 = 0.396	925.8 kg/m3	904 kg/m3
x1 = 0.399	925.4 kg/m3	907.4 kg/m3
x1 = 0.497	912.1 kg/m3	891.1 kg/m3
x1 = 0.498	911.5 kg/m3	891.2 kg/m3
x1 = 0.589	901.1 kg/m3	883.5 kg/m3
x1 = 0.596	900.2 kg/m3	879.9 kg/m3
x1 = 0.675	893.8 kg/m3	871.3 kg/m3
x1 = 0.697	893.4 kg/m3	868.5 kg/m3
x1 = 0.786	879.9 kg/m3	858.3 kg/m3
x1 = 0.796	877.1 kg/m3	858.6 kg/m3
x1 = 0.882	865.3 kg/m3	843.5 kg/m3
x1 = 0.888	865.6 kg/m3	845.6 kg/m3
x1 = 0.995	852.9 kg/m3 and 856.2 kg/m3	834.6 kg/m3 and 832.8 kg/m3

C1COCCN1 [tetrahydro-1,4-oxazine]
[1]
Conditions	mass density [kg/m3]
298.15 K	996
333.15 K	965.9

C1COCCN1 [tetrahydro-1,4-oxazine] + O
mass density, [2]
Conditions	298.15 K	333.15 K
x1 = 0.1	1023.2 kg/m3 and 1010.6 kg/m3	1001.2 kg/m3 and 1005.4 kg/m3
x1 = 0.199	1031.5 kg/m3 and 1025.9 kg/m3	1010.5 kg/m3 and 1006.2 kg/m3
x1 = 0.298	1030.9 kg/m3	1010.6 kg/m3
x1 = 0.299	1029.6 kg/m3	1006.8 kg/m3
x1 = 0.398	1029.8 kg/m3 and 1028.4 kg/m3	1006.1 kg/m3 and 1005.1 kg/m3
x1 = 0.497	1023.4 kg/m3	1000.6 kg/m3
x1 = 0.498	1025.5 kg/m3	996.6 kg/m3
x1 = 0.591	1016.8 kg/m3	990.3 kg/m3
x1 = 0.597	1019.4 kg/m3	999 kg/m3
x1 = 0.692	1013.5 kg/m3	982.6 kg/m3
x1 = 0.696	1013.5 kg/m3	989.6 kg/m3
x1 = 0.793	1005.7 kg/m3	976 kg/m3
x1 = 0.796	1003.9 kg/m3	976.4 kg/m3
x1 = 0.895	997.4 kg/m3	968.9 kg/m3
x1 = 0.897	999.2 kg/m3	969.3 kg/m3
x1 = 0.995	996 kg/m3 and 994.9 kg/m3	967.3 kg/m3 and 964.4 kg/m3

O [water]
[1]
Conditions	mass density [kg/m3]
323.15 K	988.04
333.15 K	983.2

O [water] + C1CCNC1
Conditions	mass density [kg/m3]
[2], 323.15 K, x2 = 0	988.04

O [water] + C1COCCN1
Conditions	mass density [kg/m3]
[2], 333.15 K, x2 = 0	983.2
